Results published in patent US5736629A, “Herbicide resistant rice” (priority 1997, dated 1998).

Experiments:
[1] = system: Resistant F3 Hybrid of ATCC 75295 and ATCC 97523; assay: Greenhouse test of plant vigor after imazethapyr, resistant F3 hybrid; format: in vivo, rice; conditions: for Rating of rice plant vigor: 36 days after treatment at 2-3 leaf stage, 10-point scale, 0 = dead plant, 10 = no visible injury
Text: In the greenhouse tests, pots were planted with F3 seed from crosses between the two lines. Each pot was planted with seed from a single panicle from a single plant; each pot was therefore the equivalent of a headrow. A total of 140 pots were planted in this manner, along with 40 pots of various non-resistant genotypes for comparison. Imazethapyr was applied at the 2-3 leaf stage two weeks after planting, at rates equivalent to 0.063 lb. active ingredient (a.i.) per acre, 0.125 lb. a.i./acre, and 0.313 lb. a.i./acre.
Because the material being tested was an F3 population, with genes still segregating, individual plants had different levels of resistance. At the time this patent application is being filed, there had not been sufficient time to raise rice lines that were demonstrably homozygous for both resistance mechanisms. Raising such demonstrably homozygous lines will be routine for one of ordinary skill in the art, but will require additional time.
Table 2 summarizes measurements taken 36 days after spraying rice at the 2-3 leaf stage of development.

[2] = system: resistant progeny row (rice line ATCC 75295); assay: Open-field spray screen of anther-culture progeny rows, resistant row; format: in vivo
Procedure: This resistant line was derived by conducting anther culture on the F2 progeny of a backcross made by pollinating a rice plant of the variety "Lemont" with pollen from the rice variety "Mercury," followed by a backcross using pollen from this hybrid to pollinate a plant of the variety "Mercury." The resulting backcross is described as Mercury//Lemont/Mercury. Anthers collected from a plant resulting from this backcross were plated on callus induction medium, and the resulting calli were transferred to plant regeneration media. The procedures used were generally as described in Croughan and Chu, "Rice (Oryza saliva L.): Establishment of Callus Cultures and the Regeneration of Plants" in Bajaj (Ed.), "Biotechnology in Agriculture and Forestry," pp. 19-37 (1991). Several regenerated plants were produced and grown to maturity in a greenhouse to produce seed. Progeny seed were planted in an open field, and herbicide applications were made using a garden tractor-mounted spray rig.
A set of 4,193 progeny rows derived from this anther culture procedure were planted in an open field, and were sprayed with 4 ounces per acre of Pursuit (1.00 ounce active ingredient imazethapyr per acre) at the four-leaf stage of seedling development. […]

[3] = system: single surviving plant derived from rice variety AS3510 treated with 0.5% EMS; assay: Field screen of mutagenised rice seedlings, surviving plant; format: in vivo; conditions: imazethapyr 0.125 lb a.i. per acre (2X), 0.25% non-ionic surfactant; 3-4 leaf stage; about four weeks later
Text: (§1) The second resistance mechanism resulted from inducing mutations in seeds of each of ten rice varieties. Mutations were induced by exposure either to gamma rays or to the chemical mutagen ethyl methanesulfonate (EMS). Ten-pound lots of seed of each variety were subjected to 25 k-rad of gamma irradiation from a Cobalt-60 source at the Nuclear Science Center, Louisiana State University, Baton Rouge, La. prior to planting. An additional ten pounds of seed of each variety was divided into three equal portions; and each portion was soaked for 16 hours in either 0.1%, 0.5%, or 1% EMS immediately prior to planting. Several hundred pounds of seed were harvested from plants grown from the seeds subjected to these mutagenic treatments.
(§2) The following spring the harvested seed was planted in strips in a field planting occupying a total of about three acres. At the 3-4 leaf stage of seedling development, herbicides were applied to screen for herbicide-resistant mutants. Half of the seedlings of each variety were sprayed with a 2X treatment of nicosulfuron, and half were sprayed with a 2X treatment of imazethapyr, in both cases by a tractor-mounted sprayer. Nicosulfuron was applied at the rate of 0.063 lb active ingredient (a.i.) per acre, and imazethapyr was applied at 0.125 lb a.i. per acre. Non-ionic surfactant (0.25%) was added to each spray solution. […]

[4] = system: mutagenised rice seedlings of ten rice varieties; assay: Field screen of mutagenised rice seedlings, all other plants; format: in vivo; conditions: 2X treatment: nicosulfuron 0.063 lb a.i. per acre, imazethapyr 0.125 lb a.i. per acre; 0.25% non-ionic surfactant; 3-4 leaf stage; about four weeks later
Text: as §1, §2

## CCc1cnc(C2=NC(C)(C(C)C)C(=O)N2)c(C(=O)O)c1 (racemic) [imazethapyr, (±)-2-[4,5-dihydro-4-methyl-4-(1-methylethyl)-5-oxo-1H-imidazol-2-yl]-5-ethyl-3-pyridinecarboxylic acid]
[1]; 0.063 lb. a.i./acre
  Rating of rice plant vigor: 10
[1]; 0.125 lb. a.i./acre
  Rating of rice plant vigor: 10
[1]; 0.313 lb. a.i./acre
  Rating of rice plant vigor: 10
[1]; F3 plants that inherited both resistance mechanisms, up to 0.313 lb. a.i. per acre
  Tolerance (in words): tolerance to all levels of herbicide tested
[1]; plants with both resistance mechanisms, 0.313 pounds active ingredient per acre, 36 days after treatment
  Visible injury (in words): no visible injury
[1]; resistant F3 plants, greenhouse test
  Time to visible resumption of growth after herbicide application: about a week
[2]; 4 ounces per acre Pursuit (1.00 ounce a.i. per acre), four-leaf stage, open field
  Symptoms (in words): no apparent symptoms
[2]; second spray 8 ounces/acre Pursuit (2.00 ounce a.i. per acre), four weeks after the initial treatment
  Symptoms (in words): no apparent symptoms
[3]
  Symptoms of injury (in words): No symptoms of injury
[4]
  Symptoms of injury (in words): either severely injured or dead
